Measurements: patent US4413006A, “N-Aryl-N-phenoxy-alkyl-piperazine compounds useful in decreasing intracranial pressure” (Tanabe Seiyaku Co., Ltd., priority 1980, dated 1983)
Where two headings read alike, the source gives them in different places.

Experiments:
[1] = Maximum tolerance dose in mice (Experiment 3); parameters: species or system male mice; conditions: mouse, in vivo, ip
Description: As a result, the maximum tolerance doses of 1-[3-(4-acetamido-2-methoxyphenoxy)-n-propyl]-4-(3-fluorophenyl)-piperazine, 1-[3-(4-acetamido-2-methoxyphenoxy)-n-propyl]-4-(2-fluorophenyl)-piperazine and 1-[3-(4-ethoxycarbonylamino-2-methoxyphenoxy)-n-propyl]-4-phenyl-piperazine methanesulfonate were more than 300 mg/kg.

[2] = test system: intracranial pressure (cerebrospinal fluid pressure in the cisterna magna); test: Effect of i.v. injection of test compounds on intracranial pressure in rats (Experiment 1); type: in vivo, Male SD-rats; conditions: for Change in intracranial pressure (%), time after administration of test compound 40 minutes / Change in intracranial pressure (%), time after administration of test compound 60 minutes / Change in intracranial pressure (%), time after administration of test compound 120 minutes / Change in intracranial pressure (%), time after administration of test compound 180 minutes: i.v. infusion 0.2 ml/kg/minute for 20 minutes; for Change in intracranial pressure (%), time after administration of test compound 40 minutes: baseline 100, control 106.4; for Change in intracranial pressure (%), time after administration of test compound 60 minutes: baseline 100, control 107.5; for Change in intracranial pressure (%), time after administration of test compound 120 minutes: baseline 100, control 114.4; for Change in intracranial pressure (%), time after administration of test compound 180 minutes: baseline 100, control 110.7
Description: (Effect of i.v. injection of test compounds on intracranial pressure in rats) Male SD-rats weighing 500 to 800 g (each group consisting of 5 rats) were anesthetized with urethane. A solution of a test compound in an aqueous 5 w/v % mannitol solution was infused via the femoral vein at a rate of 0.2 ml/kg/minute for 20 minutes (when the test compound was used in the form of free base, said solution was prepared by dissolving it in an aqueous 5 w/v % mannitol solution with the aid of 0.5 N hydrochloric acid). Intracranial pressure (i.e., cerebrospinal fluid pressure in the cisterna magna) was continuously monitored via a cannula inserted in the cisterna magna. The cannula was connected to a transducer, and recording were made on graph paper. The effect of the test compound on the intracranial pressure was estimated in terms of the increase or decrease in intracranial pressure, which was calculated in accordance with the following formula: [formula]

[3] = test system: apomorphine-induced cage climbing; test: Anti-apomorphine activity in mice (Experiment 2 (3)); type: in vivo, male mice; conditions: Mus musculus, ip, apomorphine hydrochloride 2.5 mg/kg s.c., dose decreasing climbing mice by 50%
Description: (§1) (Inhibitory effect of test compound on central nervous system in mice)
(§2) Inhibitory effect of test compound on central nervous system was examined by the following methods.
A solution or suspension of a test compound in water or an aqueous carboxymethylcellulose solution was administered intraperitoneally to male mice weighing 18 to 20 g (each group consisting of 5 mice). Thirty minutes after administration of the test compound, apomorphine hydrochloride (2.5 mg/kg) was administered subcutaneously to the mice, and the number of the mice which could climb a cage was examined. The 50% effective dose (ED50) of the test compound was estimated in terms of dose which is necessary to decrease the number of the medicated mice which could climb the cage by 50% of the number of a control group (i.e., non-medicated mice) which could climb the cage.

[4] = test system: sodium hexobarbital-induced anesthesia; test: Effect on sodium hexobarbital-induced anesthesia in mice (Experiment 2 (2)); type: in vivo, male mice; conditions: Mus musculus, ip, sodium hexobarbital 100 mg/kg i.p., dose prolonging sleeping time to twice control
Description: as §1, §2
A solution or suspension of a test compound in water or an aqueous carboxymethylcellulose solution was administered intraperitoneally to male mice weighing 18 to 20 g (each group consisting of 5 mice). Thirty minutes after intraperitoneal administration of the test compound, sodium hexobarbital (100 mg/kg) was administered intraperitoneally to the mice, and the sleeping time between the loss and recovery of righting reflex was measured. The 50% effective dose (ED50) of the test compound was estimated in terms of dose which is necessary to prolong the sleeping time of the medicated mice twice as long as that of a control group (i.e., non-medicated mice).

[5] = test system: spontaneous motor activity / central nervous system; test: Inhibitory effect on spontaneous motor activity in mice (Experiment 2 (1)); type: in vivo, male mice; conditions: Mus musculus, ip, 0.5 h, i.p., 30 minutes after administration, dose decreasing motor activity by 50%
Description: as §1, §2
A solution or suspension of a test compound in water or an aqueous carboxymethylcellulose solution was administered intraperitoneally to male mice weighing 18 to 20 g (each group consisting of 5 mice). Thirty minutes after administration of the test compound, the spontaneous motor activity of the mice was measured with an animex activity meter for 5 minutes. The 50% effective dose (ED50) of the test compound was estimated in terms of dose which is necessary to decrease the motor activity of the medicated mice by 50% of that of a control group (i.e., non-medicated mice).

Structure (SMILES)	Change in intracranial pressure (%), time after administration of test compound 40 minutes [2] [%]	Change in intracranial pressure (%), time after administration of test compound 60 minutes [2] [%]	Change in intracranial pressure (%), time after administration of test compound 120 minutes [2] [%]	Change in intracranial pressure (%), time after administration of test compound 180 minutes [2] [%]	other results
COc1cc(NC(C)=O)ccc1OCCCN1CCN(c2cccc(F)c2)CC1 [Example 5, 1-[3-(4-acetamido-2-methoxyphenoxy)-n-propyl]-4-(3-fluorophenyl)-piperazine]	–	–	–	–	MTD at 72 h [1]: > 300 mg/kg; decrease in the intracranial pressure ([2]; femoral vein infusion, dose 1 mg/kg, 40 minutes after administration): about 27%
COc1cc(NC(C)=O)ccc1OCCCN1CCN(c2ccccc2F)CC1 [Example 7, 1-[3-(4-acetamido-2-methoxyphenoxy)-n-propyl]-4-(2-fluorophenyl)-piperazine]	–	–	–	–	MTD at 72 h [1]: > 300 mg/kg
CCOC(=O)Nc1ccc(OCCCN2CCN(c3ccccc3)CC2)c(OC)c1.CS(=O)(=O)O [Example 21 methanesulfonate, 1-[3-(4-ethoxycarbonylamino-2-methoxyphenoxy)-n-propyl]-4-phenyl-piperazine methanesulfonate]	79.7	79.3	79.2	82.2	MTD at 72 h ([1]; mice, i.p., observed for 72 hours, read-out: maximum tolerance dose): > 300 mg/kg
COc1cc(NC(C)=O)ccc1OCCCN1CCN(c2ccccc2F)CC1 [NO. 2 (Table 4)]	–	–	–	–	ED50 [3]: 2.8 mg/kg
COc1cc(NC(C)=O)ccc1OCCCCN1CCN(c2ccccc2F)CC1 [NO. 3 (Table 1)]	86.6	91.9	85.7	84.6	–
COc1cc(NC(C)=O)ccc1OCCCN1CCN(c2ccccc2F)CC1 [NO. 3 (Table 3)]	–	–	–	–	ED50 [4]: 1.3 mg/kg
CCOC(=O)Nc1ccc(OCCCN2CCN(c3ccccc3)CC2)c(OC)c1 [NO. 3 (Table 4)]	–	–	–	–	ED50 [3]: 3 mg/kg
CCNc1ccc(OCCCN2CCN(c3ccccc3)CC2)c(OC)c1.Cl [NO. 4 (Table 1), 1-[3-(4-ethylamino-2-methoxyphenoxy)-n-propyl]-4-phenyl-piperazine hydrochloride]	83.9	81.1	86.8	91.3	–
COc1cc(NC(C)=O)ccc1OCCCN1CCN(c2ccccc2F)CC1 [NO. 4 (Table 2)]	–	–	–	–	ED50 [5]: 0.5 mg/kg
COc1cc(N)ccc1OCCCN1CCN(c2ccccc2)CC1 [NO. 5 (Table 1)]	79.1	77.0	75.0	75.6	–
COc1cc(N)ccc1OCCCN1CCN(c2ccccc2)CC1 [NO. 5 (Table 2), 1-[3-(4-amino-2-methoxyphenoxy)-n-propyl]-4-phenyl-piperazine]	–	–	–	–	ED50 [5]: 0.7 mg/kg
COc1cc(NC(C)C(=O)O)ccc1OCCCN1CCN(c2ccccc2)CC1.Cl (stereo not drawn) [NO. 6 (Table 1), 1-{3-[4-(1-carboxyethylamino)-2-methoxyphenoxy]-n-propyl}-4-phenylpiperazine hydrochloride]	81.5	86.2	96.2	99.0	–
COc1cc(NC=O)ccc1OCCCN1CCN(c2ccccc2)CC1 [NO. 7 (Table 1), 1-[3-(4-formylamino-2-methoxphenoxy)-n-propyl]-4-phenyl-piperazine]	84.1	83.5	83.5	81.9	–
COc1cc(NC(=O)C(C)C)ccc1OCCCN1CCN(c2ccccc2)CC1 [NO. 8 (Table 1), 1-[3-(4-isobutyrylamino-2-methoxyphenoxy)-n-propyl]-4-phenyl-piperazine]	83.3	85.4	85.1	87.1	–
COc1cc(NC(=O)C(C)(C)C)ccc1OCCCN1CCN(c2ccccc2)CC1 [NO. 9 (Table 1), 1-[3-(4-t-butylcarbonylamino-2-methoxyphenoxy)-n-propyl]-4-phenyl-piperazine]	84.1	84.9	84.9	87.4	–
COc1cc(NC(=O)C2CC2)ccc1OCCCN1CCN(c2ccccc2)CC1 [NO. 10 (Table 1), 1-[3-(4-cyclopropylcarbonylamino-2-methoxyphenoxy)-n-propyl]-4-phenyl-piperazine]	85.9	84.3	83.6	86.2	–
COc1cc(NC(=O)C2CCCCC2)ccc1OCCCN1CCN(c2ccccc2)CC1 [NO. 11 (Table 1), 1-[3-(4-cyclohexylcarbonylamino-2-methoxyphenoxy)-n-propyl]-4-phenyl-piperazine]	91.1	94.3	78.7	78.8	–
COc1cc(NC(=O)C=C(C)C)ccc1OCCCN1CCN(c2ccccc2)CC1 [NO. 12 (Table 1), 1-{3-[4-((2-methyl-1-propenyl)carbonylamino)-2-methoxyphenoxy]-n-propyl}-4-phenylpiperazine]	76.7	84.3	91.9	93.5	–
COc1cc(NC(=O)OC(C)(C)C)ccc1OCCCN1CCN(c2ccccc2)CC1 [NO. 14 (Table 1), 1-[3-(4-t-butoxycarbonylamino-2-methoxyphenoxy)-n-propyl]-4-phenyl-piperazine]	78.9	77.7	80.3	81.6	–
